The values below come from patent US9889115B2, “Fitness assay and associated methods” (priority 1998, dated 2018).

The target in test [1] is T1, HIV-1 protease V82F/I84V (Human immunodeficiency virus type 1 group M subtype B, UniProt P04585, I572V/V570F).
T1 construct: the proteases of wild-type HIV-1 (WT) and various mutant enzymes
The test is described as follows: continuous fluorogenic HIV protease assay. The test is classed as biochemical. The following applies: V82F/I84V (Table 7). The procedure: (§1) This example describes the protocol for the sensitive continuous fluorogenic assay for HIV protease of the present invention and its application. […] The inhibition constant for wild-type HIV-1, Kimnt/Kiwt ratio, and vitality were measured.
(§2) The reaction was initiated by the addition of 5 μl of substrate stock solution in water. […] The initial rate of hydrolysis was calculated by second degree polynomial fit using SLM AB2 2.0 operating software.
(§3) For inhibition studies, inhibitors were prepared as stock solutions at different concentrations in dimethylsulfoxide. […] The reaction was initiated by the addition of 5 μl of substrate stock solution in water. For data analysis, the mathematical model for tight-binding inhibitors was used.

Test [2] concerns the target HIV-1 protease V82F/I84V. The test is described as follows: continuous fluorogenic HIV protease assay. The test is classed as biochemical. Conditions: for KI-wt/KI-mut: V82F/I84V (Table 7); for Fitness: V82F/I84V relative to WT (Table 7). On the procedure: as §1, §2, §3
The target of test [3] is T2, wild-type HIV-1 (WT) protease (Human immunodeficiency virus type 1 group M subtype B, UniProt P04585).
T2 construct: the proteases of wild-type HIV-1 (WT)
The test can be described thus: continuous fluorogenic HIV protease assay. The test is classed as biochemical. Conditions: WT (Table 7). On the procedure:
as §1, §2, §3

For the next test, the target named is T3, HIV-1 protease G48V/V82A (Human immunodeficiency virus type 1 group M subtype B, UniProt P04585, G536V/V570A).
T3 construct: proteases containing the deleterious drug resistance associated mutations V82F/I84V and G48V/V82A
The test is described as follows: continuous fluorogenic HIV protease assay. The test is classed as biochemical. Conditions: for KI-wt/KI-mut / Ki: G48V/V82A; for Fitness: G48V/V82A relative to WT. On the procedure:
This example describes the protocol for the sensitive continuous fluorogenic assay for HIV protease of the present invention and its application. […] 21702-1201, upon written request. The inhibition constant for wild-type HIV-1, Kimnt/Kiwt ratio, and vitality were measured. (See Gulnik et al., Biochemistry, 34, 9282-9287 (1995). Protease activity was measured using the fluorgenic substrate Lys-Ala-Arg-Val-Tyr-Phe(NO2)-Glu-Ala-Nle-NH2 (Bachem Bioscience, Inc.). (See Peranteau et al., D.H. (1995) Anal. Biochem.).
The reaction was initiated by the addition of 5 μl of substrate stock solution in water. Increase in fluorescence intensity at the emission maximum of 306 nm (excitation wavelength was 277 nm) was monitored as a function of time using Aminco Bowman-2 luminescence spectrometer (SLM Instruments, Inc.). The initial rate of hydrolysis was calculated by second degree polynomial fit using SLM AB2 2.0 operating software.
For inhibition studies, inhibitors were prepared as stock solutions at different concentrations in dimethylsulfoxide. […] The reaction was initiated by the addition of 5 μl of substrate stock solution in water. For data analysis, the mathematical model for tight-binding inhibitors was used. (See Williams and Morrison (1979), In: Methods of Enzymol. 63, (ed. D. L. Purich), 437-467, Academic Press, NY, London). […]
This example describes the inhibitory activity of compounds 35 (FIG. 5A), 36 (FIG. 5B), 37 (FIG. 5C) and 38 (FIG. 5D). In accordance with the technique disclosed in Example 13 above, the inhibitory activity of these compounds was tested against proteases of the wild-type HIV-1. Compound 36, 37 and 38 were also tested against proteases containing the deleterious drug resistance associated mutations V82F/I84V and G48V/V82A. Fitness was determined in accordance with Example 13.

For test [4], the system named is HIV-1LAI. The test can be described thus: PHA-PBMC assay, p24 Gag protein production. The test is classed as cell-based. The following applies: HIV-1LAI; PBMC/p24, day 7 (Table 8).
In a further test the test system is HIV-1BAL. The test is described as follows: PHA-PBMC assay, p24 Gag protein production. The test is classed as cell-based. Conditions: HIV-1Ba-L; PBMC/p24, day 7 (Table 8).
Test [5] has as its system HIV-1LAI. The test can be described thus: MT-2 cells, MTT assay. The test is classed as cell-based. Conditions: HIV-1LAI; MT-2/MTT, day 7. On the procedure:
All drug sensitivities were performed in triplicate. […] The IC50's were determined using the MTT assay on day 7 of culture. All sensitivities were determined in […].
A general note: Tetrazolium dyes change colour on reduction, which living cells bring about.

A further test concerns wild-type HIV. The test is described as follows: wild-type antiretroviral activity (Table 4). The following applies: Human immunodeficiency virus 1, read-out: ID50.

Usually Ki stands for the dissociation constant of the complex between target and ligand, obtained from inhibition or displacement. Read a low Ki as a stronger hold on the target. Consider `CC(C)CN(C[C@@H](O)[C@H](Cc1ccccc1)NC(=O)O[C@H]1CO[C@H]2OCC[C@H]21)S(=O)(=O)c1cccc(O)c1` [Compound 36], for which the Ki on HIV-1 protease V82F/I84V [1] is 0.0244 nM; in test [3], less than 0.005 nM; at HIV-1 protease G48V/V82A, 0.0153 nM. Also, the results for the KI-wt/KI-mut on HIV-1 protease V82F/I84V [2] and on HIV-1 protease G48V/V82A were greater than 4.9 and greater than 3.0, respectively. Besides, the Fitness in the test on HIV-1 protease V82F/I84V [2] and on HIV-1 protease G48V/V82A was greater than 0.8 throughout. Besides, the IC50 with HIV-1LAI [4] turned out to be 34 nM; with HIV-1BAL, 38 nM; in the test on HIV-1LAI [5], 17 nM.
As for `CC(C)CN(C[C@@H](O)[C@H](Cc1ccccc1)NC(=O)O[C@H]1CO[C@H]2OCC[C@H]21)S(=O)(=O)c1ccc(CO)cc1` [Compound 37], the Ki on HIV-1 protease V82F/I84V [1] worked out at 0.0257 nM; in test [3] it was 0.012 nM; on HIV-1 protease G48V/V82A, 0.064 nM. In addition, the KI-wt/KI-mut at HIV-1 protease V82F/I84V [2] was determined as 2.1; in test [3], 1; at HIV-1 protease G48V/V82A, 5.3. Moreover, the Fitness in the test with HIV-1 protease V82F/I84V [2] came to 0.3; on HIV-1 protease G48V/V82A it was 1.4. Also, the figures for the IC50 in the test on HIV-1LAI [4], with HIV-1BAL and in the test on HIV-1LAI [5] were 2.7 nM, 3 nM and 5.3 nM, respectively.
`CC(C)CN(C[C@@H](O)[C@H](Cc1ccccc1)NC(=O)O[C@H]1CO[C@H]2OCC[C@H]21)S(=O)(=O)c1cccc(CO)c1` [Compound 38]: the Ki at HIV-1 protease V82F/I84V [1] is 0.0668 nM; in test [3], greater than 0.005 nM; at HIV-1 protease G48V/V82A, 0.034 nM. The results for the KI-wt/KI-mut at HIV-1 protease V82F/I84V [2] and on HIV-1 protease G48V/V82A were greater than 13 and greater than 6.8, respectively. Also, the Fitness in the test with HIV-1 protease V82F/I84V [2] is given as greater than 2.1; on HIV-1 protease G48V/V82A, greater than 1.8. For the same molecule, the figures for the IC50 with HIV-1LAI [4], with HIV-1BAL and in the test on HIV-1LAI [5] were 8 nM, 9.3 nM and 28 nM, respectively.
As to `COc1ccc(S(=O)(=O)N(CC(C)C)CC(O)C(Cc2ccccc2)NC(=O)OC2COC3OCCC23)cc1` (centres unmarked), the IC50 with wild-type HIV turned out to be 1.4 nM.
